Experimental data reported in patent US7037644B1, “Means and methods for monitoring non-nucleoside reverse transcriptase inhibitor antiretroviral therapy and guiding therapeutic decisions in the treatment of HIV/AIDS” (ViroLogic, Inc., priority 1998, dated 2006).
Values joined by “and” are separate entries in the source; they are usually repeats but may differ in a detail not shown here. Identical values can stand only once.

Legend:
Format in all cases: cell-based, HIV-1
[1] = tested on: RTV-B clone 1 (RT A98G, G190S); experiment: Phenotypic susceptibility assay (patient RTV); conditions: below 1 = increased susceptibility
Source text: (§1) The resistance test vectors containing a functional luciferase gene cassette were constructed and host cells were transfected with the resistance test vector DNA. The resistant test vectors contained patient-derived reverse transcriptase and protease sequences that were either susceptible or resistant to the antiretroviral agents, such as nucleoside reverse transcriptase inhibitors, non-nucleoside reverse transcriptase inhibitors and protease inhibitors. The resistance test vector viral particles produced by transfecting the resistance test vector DNA into host cells, either in the presence or absence of protease inhibitors, were used to infect target host cells grown either in the absence of NRTI or NNRTI or in the presence of increasing concentrations of the drug. The amount of luciferase activity produced in infected target host cells in the presence of drug was compared to the amount of luciferase produced in infected target host cells in the absence of drug. […] The IC50 values were determined by plotting percent drug inhibition vs. log10 drug concentration.
(§2) Host cells were seeded in 10-cm-diameter dishes and were transfected several days after plating with resistance test vector plasmid DNA and the envelope expression vector. […] HIV capsid protein (p24) levels in the harvested cell culture media were determined by an EIA method as described by the manufacturer (SIAC; Frederick, Md.). […] The inhibitory effect of the drug was determined using the following equation: % luciferase inhibition=1−(RLUluc [drug]÷RLUluc)×100 where RLUluc [drug] is the relative light unit of luciferase activity in infected cells in the presence of drug and RLUluc is the Relative Light Unit of luciferase activity in infected cells in the absence of drug. […]
A resistant test vector was constructed as described in Example 1 from a patient sample designated B. The anti-retroviral treatment this patient received is unknown. […] An IC50 was determined for the resistance test vector clone for each drug tested. […]

[2] = tested on: A98G-RTV; experiment: Phenotypic susceptibility assay (site directed mutant RTV); conditions: for loss of susceptibility (fold, IC50) vs wild type control RTV: A98G alone; for change in susceptibility: mutation at codon 98
Source text: (§3) The resistance test vectors containing a functional luciferase gene cassette were constructed and host cells were transfected with the resistance test vector DNA. The resistant test vectors contained patient-derived reverse transcriptase and protease sequences that were either susceptible or resistant to the antiretroviral agents, such as nucleoside reverse transcriptase inhibitors, non-nucleoside reverse transcriptase inhibitors and protease inhibitors. The resistance test vector viral particles produced by transfecting the resistance test vector DNA into host cells, either in the presence or absence of protease inhibitors, were used to infect target host cells grown either in the absence of NRTI or NNRTI or in the presence of increasing concentrations of the drug. The amount of luciferase activity produced in infected target host cells in the presence of drug was compared to the amount of luciferase produced in infected target host cells in the absence of drug. Drug resistance was measured as the amount of drug required to inhibit by 50% the luciferase activity detected in the absence of drug (inhibitory concentration 50%, IC50). The IC50 values were determined by plotting percent drug inhibition vs. log10 drug concentration.
(§4) Host cells were seeded in 10-cm-diameter dishes and were transfected several days after plating with resistance test vector plasmid DNA and the envelope expression vector. Transfections were performed using a calcium-phosphate precipitation procedure. The cell culture media containing the DNA precipitate was replaced with fresh medium, from one to 24 hours, after transfection. Cell culture media containing resistance test vector viral particles was harvested one to four days after transfection and was passed through a […] filter before being stored at […]. HIV capsid protein (p24) levels in the harvested cell culture media were determined by an EIA method as described by the manufacturer (SIAC; Frederick, Md.). Before infection, target cells (293 and 293/T) were plated in cell culture media. Control infections were performed using cell culture media from mock transfections (no DNA) or transfections containing the resistance test vector plasmid DNA without the envelope expression plasmid. One to three or more days after infection the media was removed and cell lysis buffer (Promega) was added to each well. Cell lysates were assayed for luciferase activity (FIG. 3). The inhibitory effect of the drug was determined using the following equation: % luciferase inhibition=1−(RLUluc [drug]÷RLUluc)×100 where RLUluc [drug] is the relative light unit of luciferase activity in infected cells in the presence of drug and RLUluc is the Relative Light Unit of luciferase activity in infected cells in the absence of drug. IC50 values were obtained from the sigmoidal curves that were generated from the data by plotting the percent inhibition of luciferase activity vs. the log10 drug concentration. The drug inhibition curves are shown in (FIG. 3).
The A98G mutation into the resistance test vector using the mega-primer method for site-directed mutagenesis (Sakar and Sommar, Ibid.). A resistance test vector containing the A98G mutation (A98G-RTV) was then tested using the phenotypic assay described earlier and the results were compared to those determined using a genetically defined resistance test vector that was wild type at position 98. We determined the pattern of phenotypic susceptibility to the NNRTIs, delavirdine, nevirapine and efavirenz, in the A98G-RTV.

[3] = tested on: A98G-G190S-RTV; experiment: as above; conditions: for change in susceptibility (fold, IC50) vs wild type control RTV: A98G and G190S, below 1 = increased susceptibility; for change in susceptibility: mutations at codons 98 and 190
Source text: as §3, §4
The A98 and G190S mutations were introduced alone or in combination into the resistance test vector using the mega-primer method for site-directed mutagenesis (Sakar and Sommar, Ibid.). Resistance test vectors containing the A98G mutation (A98G-RTV), the G190S mutation (G190S-RTV) and both mutations (A98G-G190S-RTV) were then tested using the phenotypic assay described earlier and the results were compared to those determined using a genetically defined resistance test vector that was wild type at position 98 and 190. We determined the pattern of phenotypic susceptibility to the NNRTIs, delavirdine, nevirapine and efavirenz, in the three vectors.

[4] = tested on: Y181C-RTV; experiment: as above; conditions: for change in susceptibility: Y181C, FIG. 5
Source text: as §1, §2
The Y181C and A98G mutations were introduced alone and in combination into resistance test vectors using the mega-primer method for site-directed mutagenesis (Sakar and Sommar, Ibid.). […] We determined the pattern of phenotypic susceptibility to the NNRTIs, delavirdine, neviraphine and efavirenz, in the three vectors. […]

[5] = tested on: V108I-RTV; experiment: as above; conditions: for change in susceptibility (fold, IC50) vs wild type control RTV: V108I alone; for change in susceptibility: mutation at codon 108
Source text: as §3, §4
The V108I mutation was introduced into the resistance test vector using the mega-primer method for site directed mutagenesis (Sakar and Sommar, Ibid.). A resistance test vector containing the V108I mutation (V108I-RTV) was then tested using the phenotypic assay described earlier and the results were compared to those determined using a genetically defined resistance test vector that was wild type at position 108. We determined the pattern of phenotypic susceptibility to the NNRTIs, delaviridine, nevirapine and efavirenz, in the V108I-RTV.

[6] = tested on: K103N-Y188L-RTV; experiment: as above; conditions: for change in susceptibility: mutations at 103 and 188
Source text: as §3, §4
(§5) The mutations Y188L, L100I and K103N were introduced alone and in combinationn into resistance test vectors using the mega-primer method for site-directed mutagenesis (Sakar and Sommar, Ibid.).

[7] = tested on: L100I-K103N-Y188L-RTV; experiment: as above; conditions: mutations at 103 and 100 and 188
Source text: as §3, §4, §5

[8] = tested on: L100I_K103N-RTV; experiment: as above; conditions: for change in susceptibility: mutations at 100 and 103
Source text: as §3, §4, §5

Structure (SMILES)	change in susceptibility (fold, IC50) [1] [fold]	loss of susceptibility (fold, IC50) vs wild type control RTV [2] [fold]	change in susceptibility [2]	change in susceptibility (fold, IC50) vs wild type control RTV [3]	change in susceptibility [3]	change in susceptibility [4]	change in susceptibility (fold, IC50) vs wild type control RTV [5] [fold]	change in susceptibility [5]	change in susceptibility [6]	change in susceptibility [7]	change in susceptibility [8]	loss of susceptibility (fold, IC50) vs wild type control RTV ([4]; Y181C alone)	loss of susceptibility (fold, IC50) vs wild type control RTV ([6]; K103N and Y188L)	loss of susceptibility (fold, IC50) vs wild type control RTV ([8]; L100I and K103N) [fold]
CC(C)Nc1cccnc1N1CCN(C(=O)c2cc3cc(NS(C)(=O)=O)ccc3[nH]2)CC1 [delavirdine]	0.55	3	slight decrease	0.8 fold	increase	resistance	1.3	no change	substantial decrease	substantial decrease	substantial decrease			
O=C1Nc2ccc(Cl)cc2[C@@](C#CC2CC2)(C(F)(F)F)O1 [efavirenz]	250	3	slight decrease	greater than 250 fold	substantial decrease		1.7	no change	substantial decrease	substantial decrease	substantial decrease	3 fold and 4 fold		
Cc1ccnc2c1NC(=O)c1cccnc1N2C1CC1 [nevirapine]	640	8	slight decrease	greater than 800 fold	substantial decrease	resistance	3	slight decrease	substantial decrease	substantial decrease	moderate decrease		greater than 800 fold	70
